# According to ChEMBL document CHEMBL1201862, “PubChem BioAssay data set” (2004):
#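 How tested: cells in 96-well plates exposed to compound for 48 hours at five concentrations. GI50 marks 50% less growth.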 Activity calls are given as the source filed them. Rule as the data show it: active = GI50 up to about 1.1 µM and inactive = higher.
# Key:
# Assay in all cases: NCI tumour cell line growth inhibition, 48 h
# [1] = test system: UACC-257
# [2] = test system: PC-3
# [3] = test system: SK-MEL-5
# [4] = test system: MOLT-4
# [5] = test system: TK-10
# [6] = test system: SNB-75
# [7] = test system: CCRF-CEM
# [8] = test system: MDA-MB-435
# [9] = test system: SR
# [10] = test system: KM12
# [11] = test system: RPMI-8226
# [12] = test system: NCI/ADR-RES
# [13] = test system: SNB-19
# [14] = test system: UO-31
# [15] = test system: SK-MEL-28
# [16] = test system: SF-539
# [17] = test system: SK-OV-3
# [18] = test system: NCI-H460
# [19] = test system: COLO 205
# [20] = test system: Hs-578T
SMILES,GI50 [1],GI50 [2],GI50 [3],GI50 [4],GI50 [5],GI50 [6],GI50 [7],GI50 [8],GI50 [9],GI50 [10],GI50 [11],GI50 [12],GI50 [13],GI50 [14],GI50 [15],GI50 [16],GI50 [17],GI50 [18],GI50 [19],GI50 [20]
Cc1nc2ccccc2nc1-c1ccc(/N=[N+](\[O-])c2ccc(-c3nc4ccccc4nc3C)cc2)cc1,> 100 µM (inactive),> 100 µM (inactive),> 96.4 µM (inactive),> 100 µM (inactive),20.1 µM (inactive),21 µM (inactive),> 100 µM (inactive),> 100 µM (inactive),> 100 µM (inactive),> 100 µM (inactive),> 100 µM (inactive),> 64.9 µM (inactive),48.8 µM (inactive),> 81.3 µM (inactive),> 100 µM (inactive),> 50.5 µM (inactive),30.8 µM (inactive),> 100 µM (inactive),> 100 µM (inactive),27.5 µM (inactive)
CC(C)C(Br)C(=O)NCC(=O)O (stereo not given),> 100 µM (inactive),> 100 µM (inactive),> 100 µM (inactive),> 100 µM (inactive),> 100 µM (inactive),> 100 µM (inactive),> 100 µM (inactive),> 100 µM (inactive),> 100 µM (inactive),> 100 µM (inactive),> 100 µM (inactive),> 100 µM (inactive),> 100 µM (inactive),> 100 µM (inactive),> 100 µM (inactive),> 100 µM (inactive),> 100 µM (inactive),> 100 µM (inactive),> 100 µM (inactive),> 100 µM (inactive)
O=C(O)c1ccccc1C(=O)OCC1CCCN2CCCCC12 (stereo not given),> 100 µM (inactive),> 100 µM (inactive),> 100 µM (inactive),> 100 µM (inactive),> 100 µM (inactive),> 100 µM (inactive),> 100 µM (inactive),> 100 µM (inactive),> 100 µM (inactive),> 100 µM (inactive),> 100 µM (inactive),> 100 µM (inactive),> 100 µM (inactive),> 100 µM (inactive),> 100 µM (inactive),> 100 µM (inactive),> 100 µM (inactive),> 100 µM (inactive),> 100 µM (inactive),> 100 µM (inactive)
Cn1nnc2c(C(N)=S)ncn2c1=O,> 100 µM (inactive),> 100 µM (inactive),> 100 µM (inactive),> 100 µM (inactive),> 100 µM (inactive),> 100 µM (inactive),> 100 µM (inactive),> 100 µM (inactive),> 100 µM (inactive),> 100 µM (inactive),> 100 µM (inactive),> 100 µM (inactive),> 100 µM (inactive),> 100 µM (inactive),> 100 µM (inactive),> 100 µM (inactive),> 100 µM (inactive),> 100 µM (inactive),> 100 µM (inactive),> 100 µM (inactive)
COC(=O)c1cc(C#N)[nH]c1-c1cc(Br)cs1,11.4 µM (inactive),12.2 µM (inactive),7.73 µM (inactive),17.9 µM (inactive),20.3 µM (inactive),2.69 µM (inactive),13.8 µM (inactive),13.3 µM (inactive),24.9 µM (inactive),20.7 µM (inactive),7.55 µM (inactive),13.4 µM (inactive),15 µM (inactive),10 µM (inactive),14.5 µM (inactive),14.3 µM (inactive),13.4 µM (inactive),19.8 µM (inactive),14.3 µM (inactive),14.5 µM (inactive)
O=C1C(Cl)=C(N2CCN(C3=C(Cl)C(=O)c4ccccc4C3=O)CC2)C(=O)c2ccccc21,1.46 µM (inactive),7.31 µM (inactive),1.79 µM (inactive),0.232 µM (active),1.96 µM (inactive),2.86 µM (inactive),0.162 µM (active),1.86 µM (inactive),0.179 µM (active),4.81 µM (inactive),0.436 µM (active),1.92 µM (inactive),14.9 µM (inactive),1.45 µM (inactive),1.94 µM (inactive),1.73 µM (inactive),14.1 µM (inactive),3.54 µM (inactive),1.69 µM (inactive),2.22 µM (inactive)
COC(=O)NC1=NNC(=O)c2ccccc2N1,> 100 µM (inactive),> 100 µM (inactive),> 100 µM (inactive),> 100 µM (inactive),> 100 µM (inactive),> 100 µM (inactive),> 100 µM (inactive),> 100 µM (inactive),> 100 µM (inactive),> 100 µM (inactive),> 100 µM (inactive),> 100 µM (inactive),> 100 µM (inactive),> 100 µM (inactive),> 100 µM (inactive),> 100 µM (inactive),> 100 µM (inactive),> 100 µM (inactive),> 100 µM (inactive),> 100 µM (inactive)
